According to US20240011038A1, “CYTARABINE-MODIFIED miRNA FOR TREATING CANCER” (Curamir Therapeutics, Inc., priority 2022, published 2024):

What was measured:
Format in all cases: cell-based
[1] = test system: REH acute lymphocytic leukemia cells; test: Cell viability of REH ALL cells exposed to modified miRNA mimics (WST-1); settings: vehicle-free transfection, 10, 5, 0.5 nM miRNA, day 6, FIG. 5
Protocol: (§1) MV-4-11 (American Type Culture Collection; “ATCC”) AML cells were maintained in Iscove's Modified Dulbecco's Medium (IMDM) (Thermo Fisher Scientific) supplemented with 10% fetal bovine serum (“FBS”; VWR). REH ALL cells (ATCC) were maintained in RPMI-1640 Medium (Thermo Fisher Scientific) supplemented with 10% FBS.
(§2) For transfection with a vehicle, twenty-four hours before transfection, cells were plated in 6 well plates at 1×10^5 cells per well. Cells were transfected with negative control miRNA (Thermo Fisher Scientific), 5-FU miR-15a, or various versions of the ara-C modified miR-15a mimic, using Lipofectamine™ 2000 (Thermo Fisher Scientific) as directed by the manufacturer. MV-4-11 cells were transfected with 15 nM of miRNA and REH cells were transfected with 25 nM of miRNA. Twenty-four hours post-transfection, cells were replated at 2000 cells per well in 96 well plates. […]
(§3) Cell numbers were measured on days 1, 3, and 6 post transfection for cells transfected with Lipofectamine 2000 and on day 6 post transfection for vehicle free transfection, using WST-1 dye (Roche). Briefly, cells were incubated with 10 μl of WST-1 dye per 100 μl of media for 1 hour (REH) or 2 hours (MV-4-11) at 37° C. and absorbance was read at 450 nm and 630 nm. The optical density (“OD”) was calculated by subtracting the absorbance at 630 nm from that at 450 nm. […]

[2] = test system: MV-4-11 acute myeloid leukemia cells; test: Cell viability of MV-4-11 AML cells exposed to modified miRNA mimics (WST-1); settings: MV-4-11 cells, vehicle-free transfection, dosage of 5 nM, 6 days; FIG. 3
Protocol: as §1, §2, §3

Wee1 gene mRNA = test: Inhibition of Wee1 expression by modified miR-15a (qRT-PCR); settings: MV-4-11 cells, lipofection, 15 nM miRNA, 24 h post-transfection, normalized to GAPDH, vs negative control miRNA; FIG. 7
Protocol: Wee1 is an important cell cycle regulator and a potential target for AML therapy. Wee1 is a direct target of miR-15a with two miR-15a binding sites in the 3′ UTR of Wee1.
For transfection with a vehicle, twenty-four hours before transfection, cells were plated in 6 well plates at 1×10^5 cells per well. Cells were transfected with negative control miRNA (Thermo Fisher Scientific), 5-FU miR-15a, or various versions of the ara-C modified miR-15a mimic, using Lipofectamine™ 2000 (Thermo Fisher Scientific) as directed by the manufacturer. MV-4-11 cells were transfected with 15 nM of miRNA. Twenty-four hours post-transfection, RNA was isolated from cells using TRIzol™ (Thermo Fisher Scientific) reagent following the manufacturer's protocol. Wee1 expression was measured using qRT-PCR and normalized to GAPDH expression and calculated by the double delta threshold cycle (ΔΔCt) method.

## 5-FU miR-15a: miR-15a mimic with 5-fluorouracil in the guide strand, unmodified passenger strand (FIG. 1F; SEQ ID NO: 1/2) (guide UAGCAGCACAUAAUGGUUUGUG; sense CAGGCCAUAUUGUGCUGCCUCA; 5-fluorouracil in guide strand; misc_feature 1..22 miR-15a guide strand; modified_base 1 OTHER; uracil or 5-fluorouracil; misc_feature 4 cytidine or cytosine arabinoside; misc_feature 7 cytidine or cytosine arabinoside; modified_base 11 OTHER; modified_base 14 OTHER; modified_base 17..19 OTHER; modified_base 21 OTHER; misc_fea; misc_feature 1..22 miR-15a passenger strand; misc_feature 1 cytidine or cytosine arabinoside; misc_feature 5..6 cytidine or cytosine arabinoside; misc_feature 15 cytidine or cytosine arabinoside;)
[1]
  inhibition of cell viability (percent cell viability): more effective than ara-C miR-15a
[2]
  cell killing: killed all cells in 6 days
Wee1 gene mRNA
  Wee1 gene mRNA expression (relative quantity, qRT-PCR): able to significantly suppress Wee1 gene mRNA expression
